Data taken from US12589097B2, “Apilimod compositions and methods of use” (ORPHAI THERAPEUTICS INC., priority 2023, dated 2026).

Assays:
[1] = tested on: Glycoprotein Nonmetastatic Melanoma Protein B (GPNMB); experiment: SOMAscan aptamer-based proteomics of plasma from patients dosed with apilimod (NCT02594384); type: in vivo, human; conditions: pre-dose vs day 15 after 14 days of dosing, FDR<0.05
Text: A SOMAscan™ platform was used to identify analytes that were changed in the plasma of patients upon apilimod dosing. SOMAscan™ is an aptamer-based proteomics assay from SomaLogic capable of measuring 1,305 human protein analytes in serum or plasma with high sensitivity and specificity. Plasma from patients enrolled in the clinical trial designated NCT02594384 was collected pre-dose (before the first administration of apilimod) and after 14 days of dosing with apilimod, on day 15. Using differential protein analysis with a paired experimental design for linear models of microarray data using the “Limma R” software package described by Ritchie et al. in Nucleic Acids Research, 43(7), pp. e47 (2015).

[2] = Body weight (percent baseline) in TDP-43 (rNLS8) mouse model of ALS; type: in vivo; conditions: Group B (60 mg/kg p.o. BID) vs vehicle Group A
Description: (§1) For the evaluation, all mice received either apilimod dimesylate (60 mg/kg)) or vehicle two times daily for 24 days, starting at […] of age, 3 days prior to disease initiation. Both groups had routine clinical assessments 3 times per week. Twenty-four (24) total mice were assigned to one of two groups, as outlined in Table 1. […]
(§2) Animals were weighed at the beginning of the experiment, and then, for dosing, daily for the duration of the study. Animals were also monitored daily, and clinical assessments were performed three times per week (Mondays, Wednesday, and Fridays) from disease initiation to the end of the study. Each clinical assessment day, animals were assessed for signs of motor dysfunction, including signs of tremor, hindlimb clasping, hindlimb paralysis, grill agility, and overall well-being. Each of these signs were scored on a scale of 0-3: normal/no dysfunction (0), mild (1), moderate (2), or severe (3), as summarized in Table 2. […]
(§3) All summary statistics are presented as mean and standard deviation. […] The data were first assessed for normality with a normal probability plot, followed by assessment of homogeneity of variance, if appropriate. […]

[3] = tested on: TDP-43 (rNLS8) mouse model of ALS; experiment: Clinical assessment of motor dysfunction in TDP-43 (rNLS8) mouse model of ALS; type: in vivo; conditions: body weight and clinical scores taken together
Description: as §1, §2, §3
Progression of clinical scores (also herein “severity score”) throughout the study, following removal of Full DOX was evaluated. […]

[4] = Observation of adverse effects of treatment in rNLS8 mice; type: in vivo, mouse; conditions: 60 mg/kg p.o. BID for 24 days
Description: For the evaluation, all mice received either apilimod dimesylate (60 mg/kg)) or vehicle two times daily for 24 days, starting at […] of age, 3 days prior to disease initiation. Both groups had routine clinical assessments 3 times per week. Twenty-four (24) total mice were assigned to one of two groups, as outlined in Table 1.
Animals were weighed at the beginning of the experiment, and then, for dosing, daily for the duration of the study. Animals were also monitored daily, and clinical assessments were performed three times per week (Mondays, Wednesday, and Fridays) from disease initiation to the end of the study. Each clinical assessment day, animals were assessed for signs of motor dysfunction, including signs of tremor, hindlimb clasping, hindlimb paralysis, grill agility, and overall well-being. Each of these signs were scored on a scale of 0-3: normal/no dysfunction (0), mild (1), moderate (2), or severe (3), as summarized in Table 2.
Apilimod dimesylate was received at ambient temperature in a 50 mL tube and protected from light. The treatments were administered p.o. twice per day (BID) for a period of 24 days Each daily dose was performed within the same ˜2-hour time frame, with approximately 6 hours between doses.

Cc1cccc(/C=N/Nc2cc(N3CCOCC3)nc(OCCc3ccccn3)n2)c1 [apilimod]
average fold change of plasma (shed) GPNMB [1]: 4 fold
percent baseline body weight vs vehicle at every clinical assessment visit [2]: tendency for higher percent baseline body weight
functional deficits in TDP-43 ALS animal model [3]: ameliorates functional deficits
adverse effects of treatment [4]: No adverse effects
